In assay [1] the test system is dogs with hyperadrenocorticism (HAC). Briefly: Prospective study of trilostane in dogs with spontaneous hyperadrenocorticism (HAC): clinical signs and survival. To be noted: given to 4 dogs for three to four days before enrolment. The class given is in vivo, dog. Here is the method:
Animals were entered into a prospective study and all animals required clinical and laboratory signs of hyperadrenocorticism as well as a final diagnosis of this disease. Data collected from each case included a clinical-historicy and physical examination, full blood count (CBC), serum biochemical profile, urinalysis and abdominal ultrasound. An ACTH-stimulation test was performed in all dogs. […] Dogs that had been treated for HAC other medication needed to be off these drugs for at least 10 days. Dogs with renal or hepatic insufficiency and dogs that received steroids were not included in the study.
Dogs with pituitary dependant hyperadrenocorticism or adrenal tumour which was unresectable or the owners were unwilling to have surgery performed, respectively, were treated with trilostane. The initial dose for dogs[…] was 30 mg once daily, dogs between 5 and 15 kg received 60 mg once daily and dogs>15 kg received 120 mg once daily. Dosages were adjusted based on clinical signs, blood biochemical parameters and an ACTH stimulation test.
Follow-up re-examinations took place after 10 days, 4 weeks, 3 mouths, 6 months and then every 6 months or within 4 weeks of adjusting the dosage. At these points, owners were carefully questioned about their perception of the dogs general well being, dissolution of clinical signs and potential side effects and a physical examination was performed. A full biochemical profile and an ACTH stimulation test were carried out. Further tests such as urinanalysis, urine culture, thoracic radiographs, etc. were done if deemed necessary. If the clinical sips of hyperadrenocorticism (polyuria/polydipsia, polyphagia, exercise intolerance, etc.) were still present and if the post-ACTH cortisol concentration remained above 220 nmol/l, trilostane was given twice daily at the same dosage.

The subject of a further assay is canine PDH. As to conditions: of 10 dogs studied; cited from earlier work.

As to `Clc1ccc(C(c2ccccc2Cl)C(Cl)Cl)cc1` (centres unmarked) [Lysodren], the Clinical effect result in assay [1] was “did not show any clinical effect”.

As for `C#CCN(C)[C@H](C)Cc1ccccc1` [L-Deprenyl], the “Dogs with improvement of clinical signs” value with canine PDH is recorded as 2 dogs.

The record behind these values is patent US9283235B2, “Intermittent lowering of cortisol as treatment of clinical conditions associated with abnormal concentrations of cortisol in animals” (Stegram Pharmaceuticals Limited, priority 2001, dated 2016).
